Tests used:
rat P2X3 receptor = biological target: T1, rat P2X3 receptor (Rattus norvegicus, UniProt P49654); experiment: P2X3 FLIPR (Fluorometric Imaging Plate Reader) assay; assay type: cell-based; settings: CHO-K1 cells transfected with cloned rat P2X3; agonist α,β-meATP 1 μM; Fluo-3 calcium fluorescence
T1 construct: expressed in transfected cells; host or cells: CHO-K1
T1 sequence (P49654 1-397): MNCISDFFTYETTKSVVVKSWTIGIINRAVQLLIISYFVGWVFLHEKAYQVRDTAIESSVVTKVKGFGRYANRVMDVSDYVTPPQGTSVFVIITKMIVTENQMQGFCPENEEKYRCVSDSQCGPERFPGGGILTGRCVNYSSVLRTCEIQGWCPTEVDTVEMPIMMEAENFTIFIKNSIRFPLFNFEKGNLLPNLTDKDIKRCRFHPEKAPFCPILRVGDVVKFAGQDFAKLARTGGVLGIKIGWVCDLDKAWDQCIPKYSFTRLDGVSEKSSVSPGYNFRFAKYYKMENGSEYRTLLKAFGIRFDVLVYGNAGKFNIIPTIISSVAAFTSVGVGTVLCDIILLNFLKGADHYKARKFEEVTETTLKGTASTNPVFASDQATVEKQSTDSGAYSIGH
Protocol: (§1) P2X3/P2X2/3 FLIPR (Fluorometric Imaging Plate Reader) Assay
(§2) CHO-K1 cells were transfected with cloned rat P2X3 or human P2X2/3 receptor subunits and passaged in flasks. 18-24 hours before the FLIPR experiment, cells were released from their flasks, centrifuged, and resuspended in nutrient medium at 2.5×10^5 cells/ml. The cells were aliquoted into black-walled 96-well plates at a density of 50,000 cells/well and incubated overnight in 5% CO2 at 37° C. On the day of the experiment, cells were washed in FLIPR buffer (calcium- and magnesium-free Hank's balanced salt solution, 10 mM HEPES, 2 mM CaCl2, 2.5 mM probenecid; FB). Each well received 100 μl FB and 100 μl of the fluorescent dye Fluo-3 AM [2 μM final conc.]. After a 1 hour dye loading incubation at 37° C., the cells were washed 4 times with FB, and a final 75 μl/well FB was left in each well.
(§3) Test compounds (dissolved in DMSO at 10 mM and serially diluted with FB) or vehicle were added to each well (25 μl of a 4× solution) and allowed to equilibrate for 20 minutes at room temperature. The plates were then placed in the FLIPR and a baseline fluorescence measurement (excitation at 488 nm and emission at 510-570 nm) was obtained for 10 seconds before a 100 μl/well agonist or vehicle addition. The agonist was a 2× solution of α,β-meATP producing a final concentration of 1 μM (P2X3) or 5 μM (P2X2/3). Fluorescence was measured for an additional 2 minutes at 1 second intervals after agonist addition. A final addition of ionomycin (5 μM, final concentration) was made to each well of the FLIPR test plate to establish cell viability and maximum fluorescence of dye-bound cytosolic calcium. Peak fluorescence in response to the addition of α,β-meATP (in the absence and presence of test compounds) was measured and inhibition curves generated using nonlinear regression. PPADS, a standard P2X antagonist, was used as a positive control.

human P2X2/3 receptor = biological target: T2, human P2X2/3 receptor (Homo sapiens, UniProt P56373+Q9UBL9); experiment: P2X2/3 FLIPR (Fluorometric Imaging Plate Reader) assay; assay type: cell-based; settings: CHO-K1 cells transfected with human P2X2/3; agonist α,β-meATP 5 μM; Fluo-3 calcium fluorescence
T2 construct: expressed in transfected cells; host or cells: CHO-K1
T2 sequence (Q9UBL9 1-471): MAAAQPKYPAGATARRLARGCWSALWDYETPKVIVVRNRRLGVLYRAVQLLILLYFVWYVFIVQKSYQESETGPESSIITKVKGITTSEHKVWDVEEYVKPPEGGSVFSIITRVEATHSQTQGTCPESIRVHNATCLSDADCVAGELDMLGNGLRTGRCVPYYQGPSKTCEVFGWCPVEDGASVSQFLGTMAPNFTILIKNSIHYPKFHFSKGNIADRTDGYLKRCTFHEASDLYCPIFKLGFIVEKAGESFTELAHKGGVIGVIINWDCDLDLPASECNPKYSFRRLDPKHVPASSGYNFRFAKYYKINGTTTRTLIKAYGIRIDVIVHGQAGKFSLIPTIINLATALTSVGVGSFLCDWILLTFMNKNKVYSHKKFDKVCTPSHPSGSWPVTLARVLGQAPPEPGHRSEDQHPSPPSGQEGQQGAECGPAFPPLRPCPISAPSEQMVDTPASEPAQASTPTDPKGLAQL
T2 sequence (P56373 1-397): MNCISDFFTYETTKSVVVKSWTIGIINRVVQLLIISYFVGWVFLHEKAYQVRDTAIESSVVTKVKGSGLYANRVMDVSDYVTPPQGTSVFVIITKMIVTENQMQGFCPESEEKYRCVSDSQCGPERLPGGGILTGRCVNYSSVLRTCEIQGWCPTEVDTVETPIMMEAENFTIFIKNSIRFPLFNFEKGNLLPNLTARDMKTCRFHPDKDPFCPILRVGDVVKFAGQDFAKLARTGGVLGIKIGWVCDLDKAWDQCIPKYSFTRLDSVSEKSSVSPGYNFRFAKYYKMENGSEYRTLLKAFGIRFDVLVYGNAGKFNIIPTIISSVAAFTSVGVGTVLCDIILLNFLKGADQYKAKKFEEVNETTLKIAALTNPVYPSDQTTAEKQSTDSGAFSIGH
Protocol: as §1, §2, §3

SMILES | pKi P2X3 (rat P2X3 receptor) | pKi P2X2/3 (human P2X2/3 receptor)
Cc1ccc(-c2cc(C(=O)N[C@@H](C)CO)cc3c2cnn3Cc2ccccc2)nc1 [Compound 10, 1-Benzyl-4-(5-methyl-pyridin-2-yl)-1H-indazole-6-carboxylic acid ((S)-2-hydroxy-1-methyl-ethyl)-amide] | 6.2 | 5.61
Cc1ccc(-c2cc(C(=O)NCc3ccc(C)nn3)cc3c2cnn3Cc2ccccc2)nc1 [Compound 11, 1-Benzyl-4-(5-methyl-pyridin-2-yl)-1H-indazole-6-carboxylic acid (6-methyl-pyridazin-3-ylmethyl)-amide] | 7.62 | 6.56
Cc1ccc(-c2cc(C(=O)NCc3cnc(C)cn3)cc3c2cnn3CC(F)(F)F)nc1 [Compound 12, 4-(5-Methyl-pyridin-2-yl)-1-(2,2,2-trifluoro-ethyl)-1H-indazole-6-carboxylic acid (5-methyl-pyrazin-2-ylmethyl)-amide] | 6.52 | 5.7
Cc1ccc(-c2cc(C(=O)NCc3ccc(C)nn3)cc3c2cnn3CC(F)(F)F)nc1 [Compound 13, 4-(5-Methyl-pyridin-2-yl)-1-(2,2,2-trifluoro-ethyl)-1H-indazole-6-carboxylic acid (6-methyl-pyridazin-3-ylmethyl)-amide] | 7.19 | 6.51
Cc1ccc(-c2cc(C(=O)NCc3cnc(C)cn3)cc3c2cnn3-c2ccccc2)nc1 [Compound 14, 4-(5-Methyl-pyridin-2-yl)-1-phenyl-1H-indazole-6-carboxylic acid (5-methyl-pyrazin-2-ylmethyl)-amide] | 7.44 | 6.54
Cc1ccc(-c2cc(C(=O)N[C@@H](C)CO)cc3c2cnn3-c2ccccc2)nc1 [Compound 15, 4-(5-Methyl-pyridin-2-yl)-1-phenyl-1H-indazole-6-carboxylic acid ((S)-2-hydroxy-1-methyl-ethyl)-amide] | 6.19 | 5.34

Now from value to compound:

pKi P2X3 (rat P2X3 receptor) | pKi P2X2/3 (human P2X2/3 receptor) | SMILES
7.7 | 6.4 | Cc1ccc(-n2ncc3c(-c4ccc(C)cn4)cc(C(=O)NCc4cnc(C)cn4)cc32)cc1 [Compound 16, 4-(5-Methyl-pyridin-2-yl)-1-p-tolyl-1H-indazole-6-carboxylic acid (5-methyl-pyrazin-2-ylmethyl)-amide]
7.38 | 4.97 | Cc1ccc(-n2ncc3c(-c4ccc(C)cn4)cc(C(=O)N[C@@H](C)CO)cc32)cc1 [Compound 17, 4-(5-Methyl-pyridin-2-yl)-1-p-tolyl-1H-indazole-6-carboxylic acid ((S)-2-hydroxy-1-methyl-ethyl)-amide]
8.01 | 7.26 | Cc1ccc(-c2cc(C(=O)NCc3cnc(C)cn3)cc3c2cnn3-c2ccccc2C)nc1 [Compound 18, 4-(5-Methyl-pyridin-2-yl)-1-o-tolyl-1H-indazole-6-carboxylic acid (5-methyl-pyrazin-2-ylmethyl)-amide]
7.98 | 6 | Cc1ccc(-c2cc(C(=O)N[C@@H](C)CO)cc3c2cnn3-c2ccccc2C)nc1 [Compound 19, 4-(5-Methyl-1-pyridin-2-yl)-1-o-tolyl-1H-indazole-6-carboxylic acid ((S)-2-hydroxy-1-methyl-ethyl)-amide]
7.55 | 6.19 | Cc1ccc(-c2cc(C(=O)N[C@@H](C)CO)cc3c2cnn3-c2ccccc2C(C)C)nc1 [Compound 20, 1-(2-Isopropyl-phenyl)-4-(5-methyl-pyridin-2-yl)-1H-indazole-6-carboxylic acid ((S)-2-hydroxy-1-methyl-ethyl)-amide]
7.17 | 5.92 | Cc1ccc(-c2cc(C(=O)NCc3cnc(C)cn3)cc3c2ccn3CC(C)C)nc1 [Compound 21, 1-Isobutyl-4-(5-methyl-pyridin-2-yl)-1H-indole-6-carboxylic acid (5-methyl-pyrazin-2-ylmethyl)-amide]
7.27 | 5.32 | Cc1ccc(-c2cc(C(=O)NCc3ccc(C)nn3)cc3c2ccn3C(C)C)nc1 [Compound 25, 1-Isopropyl-4-(5-methyl-pyridin-2-yl)-1H-indole-6-carboxylic acid (6-methyl-pyridazin-3-ylmethyl)-amide]
